Laboratory results as given in US8163939B2, “Ascorbic acid derivative or salt thereof, production method thereof, and cosmetic” (Seikwa Kasei Company, Limited, priority 2007, dated 2012).

Assays:
[1] = Moisturizing test: moisturizing effect by water retention force; assay type: physicochemical
Procedure: A sample shown later was dried, and the dried sample was spread in an amount of about 0.4 g (this weight is represented by W0) on the bottom of a weighing bottle (diameter: 3.6 cm, height excluding lid: 1.8 cm) so as to give uniform thickness. The sample contained in the weighing bottle was allowed to stand still in a constant humidity and constant temperature vessel (ENVIROS KCL-1000, TOKYO RIKAKIKAI CO, LTD) under environments of 25° C. and 65% RH. The weight was measured periodically, waiting until sufficient moisture absorption to attain equilibrium of weight increase (about 48 hours). Thereafter, the sample was transferred to under environments of 25° C. and 20% RH (in sealed vessel containing a saturated CH3COOK aqueous solution filled in the bottom part). From the weight after 24 hours (this weight is represented by W1), the amount of retained water per 1 g of the dried sample was calculated according to the following formula. (W1−W0)/W0
From the water amount thus calculated, the moisturizing effect was judged based on the following judging criterion, and the results are shown in Table 43.
Three compounds: 2,3-di-O-glyceryl ascorbic acid, 2,3-di-O-phenylglyceryl ascorbic acid, and glycerin, and
Six compounds: ascorbic acid, ascorbic acid glucoside, 2-O-glyceryl ascorbic acid, 3-O-glyceryl ascorbic acid, 3-O-butylglyceryl ascorbic acid and 3-O-octylglyceryl ascorbic acid, which were adjusted to pH7 with a dilute sodium hydroxide aqueous solution and concentrated.
◯: 25 mg or more and less than 40 mg
Δ: 10 mg or more and less than 25 mg

B16 melanoma 4A5 cell = test: Whitening test: theophylline-induced melanine production in B16 melanoma 4A5 cells; assay type: cell-based, mouse; conditions: sample at a concentration of 100 μM or less; theophylline-induced melanine production; 3 days culture; N=4;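 also: grades: ± under 20% + 20-40% ++ 40-70% +++ 70-100% suppression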
Procedure: As a test for a whitening effect, evaluation of the action of B16 melanoma 4A5 cell on theophylline-induced melanine production was carried out on an ascorbic acid derivative of the present invention, according to the following procedure. The same evaluation was carried out also on ascorbic acid, known compounds: ascorbic acid salts, and ascorbic acid derivatives, as comparison. The results are shown in Tables 38 to 40. • (1) B16 mouse melanoma 4A5 strain was sowed onto a 48-well plate at a cell density of 2.0×10^4 cells/well. • (2) Culturing was performed for 24 hours with Dulbecco's Modified Eagle's medium (manufactured by SIGMA. Hereinafter, abbreviated as D-MEM) containing 10% fetal bovine serum (manufactured by Roshe Diagnostics). Then, it was changed to 0.2 mM theophylline and a 10% fetal bovine serum-containing D-MEM which contains a sample of given concentration. • (3) After culturing for 3 days in the co-existence of a sample, the medium was removed using an aspirator. Then, after distilled water was added, cells were broken by an ultrasonic wave. • (4) Thereafter, the amount of protein was determined using BCA protein assay kit (manufactured by PIERCE), and the produced amount of melanine was measured by an alkali solubilizing method. To the cell-destructed solution was added sodium hydroxide so as to give a final concentration of 2N and the mixture was dissolved by heating (60° C., 15 minutes), then, the absorbance at 450 nm was measured using a micro plate reader. The melanine amount was calculated from a calibration curve made using synthetic melanine (SIGMA) as a standard. The melanine amount per unit protein was calculated by dividing the melanine amount by the protein amount. • (5) The melanine production suppressing rate was calculated according to the following formula. Melanine production suppressing rate (%)=[1−(A−B)/(C−B)]×100 [wherein, A represents the melanine amount per unit protein (g/g) in adding a sample, B represents the melanine amount per unit protein (g/g) in the normal group, and C represents the melanine amount per unit protein (g/g) in the control group.]
In the following Tables, the melanine production suppressing rate in measuring a sample at a concentration of 100 μM or less is expressed as described below. The measurement was carried out at N=4.

[2] = system: Normal human dermal fibroblasts; test: Collagen production of human fibroblast (Sircol collagen assay, 100 μM, 48 hours); assay type: cell-based; conditions: cultured 48 hours
Procedure: (§1) Normal human dermal fibroblasts were regulated with a 10% (v/v) fetal bovine serum (manufactured by Roshe Diagnostics)-containing D-MEM so as to give a cell density of 2.5×10^4 cells/well, then, pre-incubation for 24 hours was performed on a 96-well plate. After the medium was removed, a sample regulated with a 5% (v/v) fetal bovine serum-containing D-MEM to a concentration of 100 μM was added to each well, then, cultured for 48 hours under 37° C. and 5% CO2. After completion of culturing, the amount of free collagen was measured using Sircol collagen assay kit (manufactured by Biocolor). The measurement was carried out at N=4.
The collagen production amount in measuring a sample at a concentration of 100 μM was compared with the control group, and the results thereof (% value when the control group is 100%) are shown in Tables 44 and 45 based on the following standard.

[3] = system: Normal human dermal fibroblasts; test: Collagen production of human fibroblast 2 (100 μM or 500 μM; 2, 4 and 7 days); assay type: cell-based; conditions: for Collagen production amount in comparison with the control group (% value when the control group is 100%): 100 μM or 500 μM (not stated which), average ± standard error, N=4
Procedure: as §1
Free collagen was measured under the same conditions as in Test Example 5 excepting that the concentration of each sample was 100 μM or 500 μM and culturing was carried out for 2 days, 4 days and 7 days. The measurement was carried out at N=4, and the average and standard error, in four test examples, of values of the collagen production amount in comparison with the control group (% value when the control group is 100%) are shown in Tables 46 and 47.

[4] = Stability Test 1: 2% aqueous solution, pH7, room temperature, 4 weeks (residual rate, odor, coloration); assay type: physicochemical
Procedure: (§2) Aqueous solutions (2%) of various test samples were adjusted to pH7 with a dilute sodium hydroxide aqueous solution, and charged into 50 mL screw tubes, and the tubes were sealed and stored at room temperature for 4 weeks. Thereafter, HPLC measurement were performed (using liquid chromatography manufactured by Tosoh Corp.) and the residual rate was obtained based on the peak area. The residual rate, odor(odor change) and degree of coloration were evaluated based on the following methods and standards, and the results are shown in Table 41.
◯: 80% or more and less than 90%
Δ: 60% or more and less than 80%
X: 20% or more and less than 60%
It was evaluated according to the following criterion by 10 panelists.
Based on the evaluation results, classification was conducted as shown below.
◯: total point of 10 panelists is 25 or more
Δ: total point of 10 panelists is 16 to 24
X: total point of 10 panelists is 15 or less
3: almost no change as compared with that immediately after preparation
2: coloration is observed as compared with that immediately after preparation
1: intense coloration is observed as compared with that immediately after preparation

[5] = Stability Test 2: 2% aqueous solution, pH7, 50° C., 4 weeks (residual rate, odor, coloration); assay type: physicochemical
Procedure: as §2
The same test as in Test Example 2 was carried out excepting that the sample was stored at 50° C. for 4 weeks instead of storing at room temperature for 4 weeks.

[6] = storage period 2 weeks, 10 panelists
[7] = storage period 4 weeks, 10 panelists

Q: With `O=C1O[C@H]([C@@H](O)CO)C(OCC(O)CO)=C1OCC(O)CO` (some centres unmarked) [2,3-di-O-glycerylascorbic acid] as the compound, how does the “Judgement of moisturizing effect (water amount)” value (shortened to “Judgement of moisturizing effect”) [1] read?
A: ⊚ (⊚: 40 mg or more)

Q: For 2,3-di-O-phenylglycerylascorbic acid, which “Judgement of moisturizing effect” value [1] is on record?
A: Δ (Δ: 10 mg or more and less than 25 mg)

Q: With `OCC(O)CO` [glycerin, reference compound] as the compound, how does the “Judgement of moisturizing effect” value [1] read?
A: ⊚ (⊚: 40 mg or more)

Q: Which results are given for `O=C1O[C@H]([C@@H](O)CO)C(O)=C1O[C@H]1O[C@H](CO)[C@@H](O)[C@H](O)[C@H]1O` [ascorbic acid glucoside, reference compound]?
A: Whitening effect (melanine production suppressing rate) (B16 melanoma 4A5 cell): + (20 to 40%:+); Judgement of moisturizing effect (water amount) [1]: ⊚ (⊚: 40 mg or more); Collagen production promoting effect (collagen production amount, % of control group) ([2]; N=4): + (100 to 200%:+); collagen production promoting effect over time (in words) ([3]; 100 μM or 500 μM, culturing 2, 4 and 7 days): lowers over time; Collagen production amount in comparison with the control group (% value when the control group is 100%) ([3]; Table 46, culturing period 2 days): 193 ± 4%; Collagen production amount in comparison with the control group (% value when the control group is 100%) ([3]; Table 46, culturing period 4 days): 239 ± 2%; Collagen production amount in comparison with the control group (% value when the control group is 100%) ([3]; Table 46, culturing period 7 days): 179 ± 14%

Q: With 3-O-octylglycerylascorbic acid as the compound, how does the “Judgement of moisturizing effect” value [1] read?
A: Δ (Δ: 10 mg or more and less than 25 mg)

Q: For 3-O-butylglycerylascorbic acid, which “Judgement of moisturizing effect” value [1] is on record?
A: ◯ (◯: 25 mg or more and less than 40 mg)

Q: For `O=C1O[C@H]([C@@H](O)CO)C(OCC(O)CO)=C1O` (some centres unmarked) [3-O-glycerylascorbic acid], which “Judgement of moisturizing effect” value [1] is on record?
A: ◯ (◯: 25 mg or more and less than 40 mg)

Q: For `O=C1O[C@H]([C@@H](O)CO)C(OCC(O)CO)=C1O` (some centres unmarked) [Example 1, 3-O-glyceryl ascorbic acid], which “moisturizing effect (in words)” value ([1]; conclusion from Table 43, compared with ascorbic acid) is on record?
A: more excellent moisturizing effect than ascorbic acid

Q: For `O=C1O[C@H]([C@@H](O)CO)C(O)=C1OCC(O)CO` (some centres unmarked) [2-O-glycerylascorbic acid], which “Judgement of moisturizing effect” value [1] is on record?
A: ⊚ (⊚: 40 mg or more)

Q: What does the source list for `CCCCCCCCOC1=C(OCC(O)CO)[C@@H]([C@@H](O)CO)OC1=O` (some centres unmarked) [Example 14, 3-O-glyceryl-2-O-octyl ascorbic acid]?
A: Whitening effect (melanine production suppressing rate) (B16 melanoma 4A5 cell): +++ (70 to 100%:+++); Residual rate ([4]; storage period 0): ⊚ (⊚: 90% or more); Coloration ([4]; storage period 0, 10 panelists): ◯ (◯: total point of 10 panelists is 25 or more); Odor ([4]; storage period 0, 10 panelists): ◯ (◯: total point of 10 panelists is 25 or more); Residual rate ([4]; storage period 2 weeks): ⊚ (⊚: 90% or more); Coloration [4, 6]: ◯ (◯: total point of 10 panelists is 25 or more); Odor [4, 6]: ◯ (◯: total point of 10 panelists is 25 or more); Residual rate ([4]; storage period 4 weeks): ⊚ (⊚: 90% or more); Coloration [4, 7]: ◯ (◯: total point of 10 panelists is 25 or more); Odor [4, 7]: ◯ (◯: total point of 10 panelists is 25 or more); Residual rate ([5]; storage period 0): ⊚ (⊚: 90% or more); Coloration ([5]; storage period 0, 10 panelists): ◯ (◯: total point of 10 panelists is 25 or more); Odor ([5]; storage period 0, 10 panelists): ◯ (◯: total point of 10 panelists is 25 or more); Residual rate ([5]; storage period 2 weeks): ⊚ (⊚: 90% or more); Coloration [5, 6]: ◯ (◯: total point of 10 panelists is 25 or more); Odor [5, 6]: ◯ (◯: total point of 10 panelists is 25 or more); Residual rate ([5]; storage period 4 weeks): ⊚ (⊚: 90% or more); Coloration [5, 7]: ◯ (◯: total point of 10 panelists is 25 or more); Odor [5, 7]: ◯ (◯: total point of 10 panelists is 25 or more); activity at 100 µM ([2]; Homo sapiens, Fibroblast, N=4, read-out: Collagen production promoting effect (collagen production amount, % of control group)): 100 to 200%; Collagen production amount in comparison with the control group (% value when the control group is 100%) ([3]; Table 47, culturing period 2 days): 132 ± 22%; Collagen production amount in comparison with the control group (% value when the control group is 100%) ([3]; Table 47, culturing period 4 days): 144 ± 9%; Collagen production amount in comparison with the control group (% value when the control group is 100%) ([3]; Table 47, culturing period 7 days): 238 ± 17%
